Measurements: patent US9670261B2 (Sanofi, priority 2012, dated 2017)
In brackets after ≈: the same amount, converted by molar mass. *1 amine or outer side, *2 acyl side, *3 side chain or, on linkers, in order; H or OH if unused. Where a SMILES comes first, the peptide text is derived from it. Side-chain parts run from the residue outwards. [ ]: non-standard residue; d: D form. The star is where a group is joined. γGlu = O=C(O)[C@H](CCC(=O)[*:2])N[*:1]; Stearoyl = CCCCCCCCCCCCCCCCCC(=O)*; Palmitoyl = CCCCCCCCCCCCCCCC(=O)*; Aib = CC(C)(N)C(=O)O; GABA = NCCCC(=O)O

How the values were obtained:
human GIP receptor = target: T1, human GIP receptor (Homo sapiens, UniProt P48546); test: cAMP response (HTRF) of HEK-293 cells stably expressing human GIP receptor; format: cell-based; conditions: Table 7; cAMP formation; read-out: EC50 hGIP R
T1 construct: expressed in transfected cells
T1 sequence (P48546 22-466): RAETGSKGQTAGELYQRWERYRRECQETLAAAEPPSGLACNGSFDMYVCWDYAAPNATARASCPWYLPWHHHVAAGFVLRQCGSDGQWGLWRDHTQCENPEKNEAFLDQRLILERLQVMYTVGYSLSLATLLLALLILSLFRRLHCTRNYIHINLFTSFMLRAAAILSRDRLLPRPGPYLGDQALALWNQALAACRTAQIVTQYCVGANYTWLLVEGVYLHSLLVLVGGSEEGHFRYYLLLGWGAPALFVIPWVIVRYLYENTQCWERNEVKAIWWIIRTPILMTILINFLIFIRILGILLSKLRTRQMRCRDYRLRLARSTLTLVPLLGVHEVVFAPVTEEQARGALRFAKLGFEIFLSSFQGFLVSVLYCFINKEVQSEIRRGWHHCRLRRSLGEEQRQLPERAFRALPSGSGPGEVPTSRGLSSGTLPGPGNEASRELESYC
Experimental: cAMP content of cells was determined using a kit from Cisbio Corp. (cat. no. 62AM4PEC) based on HTRF (Homogenous Time Resolved Fluorescence). For preparation, cells were split into T175 culture flasks and grown overnight to near confluency in medium (DMEM/10% FBS). Medium was then removed and cells washed with PBS lacking calcium and magnesium, followed by proteinase treatment with accutase (Sigma-Aldrich cat. no. A6964). Detached cells were washed and resuspended in assay buffer (1×HBSS; 20 mM HEPES, 0.1% BSA, 2 mM IBMX) and cellular density determined. They were then diluted to 400000 cells/ml and 25 μl-aliquots dispensed into the wells of 96-well plates. For measurement, 25 μl of test compound in assay buffer was added to the wells, followed by incubation for 30 minutes at room temperature.

human GLP-1 receptor = target: T2, human GLP-1 receptor (Homo sapiens, UniProt P43220); test: cAMP response (HTRF) of HEK-293 cells stably expressing human GLP-1 receptor; format: cell-based; conditions: Table 7; cAMP formation; read-out: EC50 hGLP-1 R
T2 construct: expressed in transfected cells
Method in brief: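 cAMP accumulation was read by homogeneous time-resolved fluorescence after 30 min compound exposure at room temperature. Stable receptor-expressing HEK-293 cells, 400000 cells/ml, were used in HEPES-buffered HBSS containing 0.1% BSA and the phosphodiesterase inhibitor IBMX (2 mM).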

[1] = Chemical stability in solution, 7 days at 25° C. (% remaining peptide); conditions: % remaining peptide after 7 days at 25° C.
Experimental: After that time course, the sample was centrifuged for 20 min at 4000 rpm and the supernatant was analysed with HPLC-UV. For determination of the amount of the remaining peptide, the peak areas of the target compound at t0 and t7 were compared, resulting in “% remaining peptide”, following the equation % remaining peptide=[(peak area peptide t7)×100]/peak area peptide t0.
The chemical stability is expressed as “% remaining peptide”.

[2] = Solubility testing in buffer (HPLC-UV); conditions: buffer
[3] = Pharmacokinetic testing in mice, s.c.; conditions: mouse, plasma, sc, 1 mg/kg
Experimental: Mice were dosed 1 mg/kg subcutaneously (s.c.). The mice were sacrified and blood samples were collected after 0.25, 0.5, 1, 2, 4, 8, 16 and 24 hours post application. Plasma samples were analyzed after protein precipitation via liquid chromatography mass spectrometry (LC/MS). PK parameters and half-life were calculated using WinonLin Version 5.2.1 (non-compartment model).

T2 sequence (P43220 24-463): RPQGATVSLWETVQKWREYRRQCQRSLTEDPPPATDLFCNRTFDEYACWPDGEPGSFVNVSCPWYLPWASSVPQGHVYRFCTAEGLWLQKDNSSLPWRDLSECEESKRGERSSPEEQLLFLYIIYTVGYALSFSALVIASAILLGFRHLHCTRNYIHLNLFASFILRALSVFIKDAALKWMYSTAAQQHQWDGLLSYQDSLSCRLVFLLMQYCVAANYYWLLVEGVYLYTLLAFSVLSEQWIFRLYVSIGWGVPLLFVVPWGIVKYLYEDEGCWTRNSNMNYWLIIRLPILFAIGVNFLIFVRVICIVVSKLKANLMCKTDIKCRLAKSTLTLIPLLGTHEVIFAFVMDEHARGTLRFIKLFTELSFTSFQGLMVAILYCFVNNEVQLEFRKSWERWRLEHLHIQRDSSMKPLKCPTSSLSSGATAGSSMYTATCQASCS

| SMILES | EC50 (human GIP receptor) [pM] | EC50 (human GLP-1 receptor) [pM] | Stability (pH 4.5) ([1]; pH 4.5) [%] | Stability (pH 7.4) ([1]; pH 7.4) [%] | solubility at 2 h ([2]; pH 4.5) [mg/mL] | solubility at 2 h ([2]; pH 7.4) [mg/mL] | Cmax [3] [µg/mL] | half-life [3] [h] |
| --- | --- | --- | --- | --- | --- | --- | --- | --- |
| CCCCCCCCCCCCCCCCCC(=O)NCCCC(=O)NCCCC[C@H](NC(=O)[C@H](CCC(N)=O)NC(=O)[C@@H](NC(=O)[C@H](CO)NC(=O)[C@H](CC(C)C)NC(=O)[C@H](CC(=O)O)NC(=O)[C@H](CO)NC(=O)[C@@H](NC(=O)[C@H](Cc1ccccc1)NC(=O)[C@@H](NC(=O)CNC(=O)[C@H](CCC(=O)O)NC(=O)C(C)(C)NC(=O)[C@@H](N)Cc1ccc(O)cc1)[C@@H](C)O)[C@@H](C)O)[C@@H](C)CC)C(=O)N[C@@H](CCC(=O)O)C(=O)N[C@@H](CCCCN)C(=O)N[C@@H](CCCNC(=N)N)C(=O)N[C@@H](C)C(=O)N[C@@H](C)C(=O)NC(C)(C)C(=O)N[C@@H](CCC(=O)O)C(=O)N[C@@H](Cc1ccccc1)C(=O)N[C@H](C(=O)N[C@@H](CCC(=O)O)C(=O)N[C@@H](Cc1c[nH]c2ccccc12)C(=O)N[C@@H](CC(C)C)C(=O)N[C@@H](CCCCN)C(=O)N[C@@H](CC(N)=O)C(=O)N[C@H](C(=O)NCC(=O)N1CCC[C@H]1C(=O)N[C@@H](CO)C(=O)N[C@@H](CO)C(=O)NCC(=O)N[C@@H](C)C(=O)N1CCC[C@H]1C(=O)N1CCC[C@H]1C(=O)N1CCC[C@H]1C(=O)N[C@@H](CO)C(N)=O)[C@@H](C)O)[C@@H](C)CC [SEQ ID NO: 17, Y-Aib-E-G-T-F-T-S-D-L-S-I-Q-K(GABA-x70)-E-K-R-A-A-Aib-E-F-I-E-W-L-K-N-T-G-P-S-S-G-A-P-P-P-S-NH2] (H-Y[Aib]EGTFTSDLSIQK([GABA-Stearoyl])EKRAA[Aib]EFIEWLKNTGPSSGAPPPS-NH2) | 9.6 | 8.7 | 100.0 | 100.0 | 0.97 (≈ 213 µM) | > 1 |  |  |
| CCCCCCCCCCCCCCCC(=O)N[C@@H](CCC(=O)NCCCC[C@H](NC(=O)[C@H](CCC(N)=O)NC(=O)[C@@H](NC(=O)[C@H](CO)NC(=O)[C@H](CC(C)C)NC(=O)[C@H](CC(=O)O)NC(=O)[C@H](CO)NC(=O)[C@@H](NC(=O)[C@H](Cc1ccccc1)NC(=O)[C@@H](NC(=O)CNC(=O)[C@H](CCC(=O)O)NC(=O)C(C)(C)NC(=O)[C@@H](N)Cc1ccc(O)cc1)[C@@H](C)O)[C@@H](C)O)[C@@H](C)CC)C(=O)N[C@@H](CCC(=O)O)C(=O)N[C@@H](CCCCN)C(=O)N[C@@H](CCCNC(=N)N)C(=O)N[C@@H](C)C(=O)N[C@@H](C)C(=O)NC(C)(C)C(=O)N[C@@H](CC(=O)O)C(=O)N[C@@H](Cc1ccccc1)C(=O)N[C@H](C(=O)N[C@@H](CCC(=O)O)C(=O)N[C@@H](Cc1c[nH]c2ccccc12)C(=O)N[C@@H](CC(C)C)C(=O)N[C@@H](CCCCN)C(=O)N[C@@H](CC(N)=O)C(=O)N[C@H](C(=O)NCC(=O)N1CCC[C@H]1C(=O)N[C@@H](CO)C(=O)N[C@@H](CO)C(=O)NCC(=O)N[C@@H](C)C(=O)N1CCC[C@H]1C(=O)N1CCC[C@H]1C(=O)N1CCC[C@H]1C(=O)N[C@@H](CO)C(N)=O)[C@@H](C)O)[C@@H](C)CC)C(=O)O [SEQ ID NO: 27, Y-Aib-E-G-T-F-T-S-D-L-S-I-Q-K(γE-x53)-E-K-R-A-A-Aib-D-F-I-E-W-L-K-N-T-G-P-S-S-G-A-P-P-P-S-NH2] (H-Y[Aib]EGTFTSDLSIQK([γGlu-Palmitoyl])EKRAA[Aib]DFIEWLKNTGPSSGAPPPS-NH2) | 6.7 | 4 |  |  |  |  |  |  |
| CCCCCCCCCCCCCCCC(=O)N[C@@H](CCC(=O)NCCCC[C@H](NC(=O)[C@H](CCC(N)=O)NC(=O)[C@@H](NC(=O)[C@H](CO)NC(=O)[C@H](CC(C)C)NC(=O)[C@H](CC(=O)O)NC(=O)[C@H](CO)NC(=O)[C@@H](NC(=O)[C@H](Cc1ccccc1)NC(=O)[C@@H](NC(=O)CNC(=O)[C@H](CCC(N)=O)NC(=O)C(C)(C)NC(=O)[C@@H](N)Cc1ccc(O)cc1)[C@@H](C)O)[C@@H](C)O)[C@@H](C)CC)C(=O)N[C@@H](CCC(=O)O)C(=O)N[C@@H](CO)C(=O)N[C@@H](CCCNC(=N)N)C(=O)N[C@@H](C)C(=O)N[C@@H](C)C(=O)N[C@@H](CCC(N)=O)C(=O)N[C@@H](CC(=O)O)C(=O)N[C@@H](Cc1ccccc1)C(=O)N[C@H](C(=O)N[C@@H](CCC(=O)O)C(=O)N[C@@H](Cc1c[nH]c2ccccc12)C(=O)N[C@@H](CC(C)C)C(=O)N[C@@H](CCCCN)C(=O)N[C@@H](C)C(=O)NCC(=O)NCC(=O)N1CCC[C@H]1C(=O)N[C@@H](CO)C(=O)N[C@@H](CO)C(=O)NCC(=O)N[C@@H](C)C(=O)N1CCC[C@H]1C(=O)N1CCC[C@H]1C(=O)N1CCC[C@H]1C(=O)N[C@@H](CO)C(N)=O)[C@@H](C)CC)C(=O)O [SEQ ID NO: 32, Y-Aib-Q-G-T-F-T-S-D-L-S-I-Q-K(γE-x53)-ESRAAQDFIEWLKAGGPSSGAPPPS-NH2] (H-Y[Aib]QGTFTSDLSIQK([γGlu-Palmitoyl])ESRAAQDFIEWLKAGGPSSGAPPPS-NH2) | 7.1 | 8.4 |  |  |  |  | 5.52 | 2.7 |
| CCCCCCCCCCCCCCCC(=O)N[C@@H](CCC(=O)NCCCC[C@H](NC(=O)[C@H](CCC(N)=O)NC(=O)[C@@H](NC(=O)[C@H](CO)NC(=O)[C@H](CC(C)C)NC(=O)[C@H](CC(=O)O)NC(=O)[C@H](CO)NC(=O)[C@@H](NC(=O)[C@H](Cc1ccccc1)NC(=O)[C@@H](NC(=O)CNC(=O)[C@H](CCC(=O)O)NC(=O)C(C)(C)NC(=O)[C@@H](N)Cc1ccc(O)cc1)[C@@H](C)O)[C@@H](C)O)[C@@H](C)CC)C(=O)N[C@@H](CCC(=O)O)C(=O)N[C@@H](CCCCN)C(=O)N[C@@H](CCCNC(=N)N)C(=O)N[C@@H](C)C(=O)N[C@@H](C)C(=O)NC(C)(C)C(=O)N[C@@H](CCC(=O)O)C(=O)N[C@@H](Cc1ccccc1)C(=O)N[C@H](C(=O)N[C@@H](CCC(=O)O)C(=O)N[C@@H](Cc1c[nH]c2ccccc12)C(=O)N[C@@H](CC(C)C)C(=O)N[C@@H](CCCCN)C(=O)N[C@@H](C)C(=O)NCC(=O)NCC(=O)N1CCC[C@H]1C(=O)N[C@@H](CO)C(=O)N[C@@H](CO)C(=O)NCC(=O)N[C@@H](C)C(=O)N1CCC[C@H]1C(=O)N1CCC[C@H]1C(=O)N1CCC[C@H]1C(=O)N[C@@H](CO)C(N)=O)[C@@H](C)CC)C(=O)O [SEQ ID NO: 36, Y-Aib-E-G-T-F-T-S-D-L-S-I-Q-K(γE-x53)-E-K-R-A-A-Aib-E-F-I-E-W-L-K-A-G-G-P-S-S-G-A-P-P-P-S-NH2] (H-Y[Aib]EGTFTSDLSIQK([γGlu-Palmitoyl])EKRAA[Aib]EFIEWLKAGGPSSGAPPPS-NH2) | 6.4 |  |  |  |  |  |  |  |
